The record followed here is US8197863B2, “Hop acids as a replacement for antibiotics in animal feed” (John I. Haas, Inc., priority 2002, dated 2012).

This test concerns total bacteria (bacterial purine). The test is described as follows: In vitro microbe measurements: bacterial purine (total bacteria). The class given is cell-based, cattle. As to conditions: alfalfa; monensin 6 ppm. The source says: Proprionate is largely responsible for animal growth. […] There appears to be no effect on alfalfa protozoa and alfalfa bacterial purine by the beta acids. Again, reduction in protozoa and bacteria levels means more food and energy for animal growth.

Each structure is given as a SMILES string.

Regarding `CC[C@@]1([C@@H]2O[C@@H]([C@H]3O[C@@](O)(CO)[C@H](C)C[C@@H]3C)C[C@@H]2C)CC[C@H]([C@]2(C)CC[C@]3(C[C@H](O)[C@@H](C)[C@@H]([C@@H](C)[C@@H](OC)[C@H](C)C(=O)O)O3)O2)O1` [monensin], the “elimination of protozoa and bacterial purines” value is recorded as “most effectively eliminate”.
